# In patent US20010051184A1, “METHOD FOR USING SOLUBLE CURCUMIN TO INHIBIT PHOSPHORYLASE KINASE IN INFLAMMATORY DISEASES” (priority 1999, published 2001):
# Legend:
# [1] = Solubility study on curcumin; format: physicochemical; conditions: for Solubility result: 0.5 g of curcumin
# Method: Table 1 reports the results of a solubility study on curcumin. […] Curcumin is also not soluble in cold mineral oil or hot mineral oil. However, curcumin is soluble in 70% isopropyl alcohol to at least the extent of 0.5 g/50 ml.
# phosphorylase kinase = experiment: Phosphorylase kinase activity in treated psoriatic epidermis (Example 6); format: in vivo, human; conditions: mean±SD, n=10; curcumin alcoholic gel (1%) 4-6 weeks, Dovonex ointment 6-18 months; untreated psoriasis 1204.6±804.3, normal skin 105.4±44.6
# Method: With consent, punch biopsies were collected (6 mm) from active plaques of 10 patients with active untreated psoriasis, from resolving plaques from 10 patients each treated with curcumin alcoholic gel (1%) for 4-6 weeks, and with Dovonex ointment for 6-18 months. Normal skin was also biopsied from 10 non-psoriatic patients to monitor the results. From each site, skin biopsy samples (6 mm punch) were stored at −70° C., and processed thereafter as previously described (Heng et al. (1994), supra). Briefly, each frozen sample, with the epidermal surface facing upwards, was placed in a glass tube to which 3 ml Tris-HCl buffer (10 mM Tris-HCl, pH 7.8, 1 mM dithiothreitol (DDT), 3 mM MgSO4 and 1 mM EGTA) was added. This was homogenized vigorously with a Teflon plunger in a TRIS-R model K41 homogenizer for 1 sec. Homogenization was repeated if necessary. The lysate of epidermal cells, separated from the dermis, was in the cytosolic solution. The fibroblasts that were inadvertently detached, together with the relatively intact piece of dermis, were removed by decanting the cytosolic solution into a 5 ml capacity polypropylene test tube. […] The filter paper containing […] was counted in a liquid scintillation counter. Enzyme activity was determined based on the standard curve prepared with phosphorylase kinase of known activity supplied by Sigma Co (St. Louis, Mo.).
# HLA-DR+ cells = experiment: HLA-DR expression in treated psoriasis; format: in vivo, human
# Method: (§1) With consent, punch biopsies were collected (6 mm) from active plaques of 10 patients with active untreated psoriasis, from resolving plaques from 10 patients each treated with curcumin alcoholic gel (1%) for 4-6 weeks, and with Dovonex ointment for 6-18 months. Normal skin was also biopsied from 10 non-psoriatic patients to monitor the results. Biopsy specimens for immunocytochemistry were embedded in OCT compound (Tissue-Tek), snap-frozen in liquid nitrogen and stored at −70° C. Serial cryostat sections (4 Tm) were mounted on gelatin-coated slides and air-dried for 30 mins at room temperature. The mounted sections were then freeze-dried for 4 hours, fixed in acetone for 20 mins at room temperature, and air-dried for 5 mins prior to immunostaining. Monoclonal antibodies (as listed at Table 7), were added to the sections, which were then incubated for 60 mins at room temperature, washed in phosphate-buffered saline (PBS) pH 7.6, and overlaid with peroxidase conjugate. All monoclonal antibodies had been obtained from Becton-Dickinson and were used at 1:100 dilution. The sections were then washed with PBS and the peroxidase color developed using diaminobenzidine. […] The activated HLA+ inflammatory cell population was assessed as abundant (200-500 or more cells/hpf), moderate (50-200 cells/hpf), and sparse (1-50/hpf). […]
# TRR+ keratinocytes = experiment: Transferrin receptor (TRR) expression by keratinocytes in treated psoriasis; format: in vivo, human; conditions: mean, n=10; treated resolving psoriasis; untreated 60.1%, normal skin 4.3%
# Method: With consent, punch biopsies were collected (6 mm) from active plaques of 10 patients with active untreated psoriasis, from resolving plaques from 10 patients each treated with curcumin alcoholic gel (1%) for 4-6 weeks, and with Dovonex ointment for 6-18 months. Normal skin was also biopsied from 10 non-psoriatic patients to monitor the results. Biopsy specimens for immunocytochemistry were embedded in OCT compound (Tissue-Tek), snap-frozen in liquid nitrogen and stored at −70° C. Serial cryostat sections (4 Tm) were mounted on gelatin-coated slides and air-dried for 30 mins at room temperature. The mounted sections were then freeze-dried for 4 hours, fixed in acetone for 20 mins at room temperature, and air-dried for 5 mins prior to immunostaining. Monoclonal antibodies (as listed at Table 7), were added to the sections, which were then incubated for 60 mins at room temperature, washed in phosphate-buffered saline (PBS) pH 7.6, and overlaid with peroxidase conjugate. All monoclonal antibodies had been obtained from Becton-Dickinson and were used at 1:100 dilution. […] The expression of TRR on basal and suprabasal keratinocytes was quantified as the percentage of TRR+ keratinocytes per rete ridge. The keratinocytes of 10 consecutive rete ridges were assessed in for each biopsy and the results averaged.
# [2] = tested on: parakeratosis of stratum corneum; experiment: Severity of parakeratosis in treated psoriasis; format: in vivo, human; conditions: mean±SD, untreated 94.6±4.3%
# Description: With consent, punch biopsies were collected (6 mm) from active plaques of 10 patients with active untreated psoriasis, from resolving plaques from 10 patients each treated with curcumin alcoholic gel (1%) for 4-6 weeks, and with Dovonex ointment for 6-18 months. Normal skin was also biopsied from 10 non-psoriatic patients to monitor the results. Parakeratosis, assessed histologically by the loss of granular layer and the presence of nuclei of immature keratinocytes within the stratum comeum, reflects in part the migratory capacity of basal keratinocytes towards the stratum comeum. The severity of parakeratosis is assessed as % involvement of a 4 mm linear strip of stratum comeum. An average of three sections per biopsy specimen was used for data analysis.
# psoriatic plaques = experiment: Clinical resolution of psoriatic plaques; format: in vivo, human; conditions: clinical observations
# Description: With consent, punch biopsies were collected (6 mm) from active plaques of 10 patients with active untreated psoriasis, from resolving plaques from 10 patients each treated with curcumin alcoholic gel (1%) for 4-6 weeks, and with Dovonex ointment for 6-18 months. Normal skin was also biopsied from 10 non-psoriatic patients to monitor the results.
# In this study, the anti-psoriatic activity of curcumin is reported. Also known as diferuloylmethane, curcumin is a component in spices such as turmeric and ginger. […] Based on clinical observations that untreated psoriatic plaques resolve within 4-6 weeks with curcumin and between 6-18 months or more with Dovonex, the results of this Example lead to the conclusion that curcumin is at least as effective as Dovonex in producing clinical resolution of psoriatic plaques.
# epidermal CD8+ T cells = experiment: Epidermal CD8+ T-cell density in treated psoriasis; format: in vivo, human; conditions: mean, untreated 38.2
# Method: as §1, with “diaminobenzidine. Negative controls from all patients were processed as above, omitting the monoclonal antibodies.” for “diaminobenzidine.”, “density of the epidermal CD8+ T-cells” for “activated HLA+ inflammatory cell population”, “enumerated and quantified” for “assessed”, “the number of epidermal CD8+ T cells per hpf.” for “abundant (200-500 or more cells/hpf), moderate (50-200 cells/hpf), and sparse (1-50/hpf).”
# CD3+ T lymphocytes = CD3+ T lymphocytes in curcumin-treated psoriatic skin (immunohistochemistry, FIG. 9); format: in vivo, human; conditions: FIG. 9b; T lymphocytes present only within dermal blood vessels
smiles,measurement,setting,value
"COc1cc(/C=C/C(=O)CC(=O)/C=C/c2ccc(O)c(OC)c2)ccc1O [curcumin, (E, E) 1,7-bis(4-hydroxy-3-methoxyphenyl)-1,6-heptadiene-3,5-dione]",Solubility in 70% isopropyl alcohol,[1]; 70% isopropyl alcohol,≥ 0.5 g/50 ml
same,Solubility result,"[1]; 70% isopropyl alcohol, 5 ml",Soluble (some precipitate?
same,Solubility result,"[1]; 70% isopropyl alcohol, 50 ml",Soluble (no precipitate)
same,Solubility result,"[1]; Cold water, 5 ml",Not soluble (precipitate present)
same,Solubility result,"[1]; Cold water, 50 ml",Not soluble (precipitate present)
same,Solubility result,"[1]; Cold water, 500 ml",Not soluble (precipitate present)
same,Solubility result,"[1]; Mineral oil (140° F.), 5 ml",Not soluble (precipitate present)
same,Solubility result,"[1]; Mineral oil (140° F.), 50 ml",Not soluble (precipitate present)
same,Solubility result,"[1]; Mineral oil, 5 ml",Not soluble (precipitate present)
same,Solubility result,"[1]; Mineral oil, 50 ml",Not soluble (precipitate present)
same,Solubility result,"[1]; Water (200° F.), 5 ml",Not soluble (precipitate present)
same,Solubility result,"[1]; Water (200° F.), 50 ml",Not soluble (precipitate present)
same,Solubility result,"[1]; Water (200° F.), 500 ml",Not soluble (precipitate present)
same,Solubility,[1]; cold mineral oil,not soluble
same,Solubility,[1]; cold water,not soluble
same,Solubility,[1]; hot mineral oil,not soluble
same,Solubility,[1]; hot water,not soluble
same,Phosphorylase kinase activity in treated psoriatic epidermis,phosphorylase kinase,207.2±97.6 units/mg protein
same,"Overall HLA-DR expression (HLA-DR+ inflammatory cell population), grade per specimen","HLA-DR+ cells; 10 skin specimens per treated group, untreated abundant in 10/10",sparse (sparse (1-50/hpf))
same,HLA-DR expression on endothelial cells and keratinocytes,"HLA-DR+ cells; treated psoriasis, untreated strongly positive",not observed
same,Percentage of TRR+ keratinocytes/rete ridge,TRR+ keratinocytes,4.3%
same,"Parakeratosis, linear involvement of stratum corneum",[2],1.4±2.4%
same,Time for psoriatic plaques to resolve under curcumin treatment,psoriatic plaques,4-6 weeks
same,Number of epidermal CD8+ cells/hpf,epidermal CD8+ T cells,0.6 cells/hpf
same,CD3+ T lymphocytes in epidermis of treated resolving psoriatic skin,CD3+ T lymphocytes,lack of T lymphocytes in epidermis
